Results reported in US9200008B2 (ASKA PHARMACEUTICAL CO., LTD., priority 2010, dated 2015).

Each molecule was assayed on Human prostate cancer cell lines (PC-3 cells) (assay: Measurement of cell death-inducing activity (Test Example 1)). Settings: PC-3, 48 h, 48 hours after addition, tested at 10, 1, 0.1, 0.025 and 0.00625 μmol/L, qualitative evaluation of 10 fields, read-out: Concentration showing the cell death-inducing activity (cell death-inducing rate not less than 40%).
Format: cell-based
Summary of the method: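 PC-3 cells seeded at 1×10^5 cells/well and grown 48 h at 37 °C, 5% CO2, then exposed to compound at 10, 1, 0.1, 0.025 and 0.00625 μmol/L (DMSO control) for a further 48 h. Activity was called where cell death-inducing rate was not less than 40%.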

`COc1ccccc1-c1nc(C)c(C(=O)N/N=C/c2ccc(N(C)C)cc2)s1` [Example 23-88] and `CCCOc1ccccc1-c1nc(C)c(C(=O)N/N=C/c2ccc(OC)cc2)s1` [Example 23-149] are the same in minimal effective concentration: 0.1 µM for the first, 0.1 µM for the second.

First: COc1ccccc1-c1nc(C)c(C(=O)N/N=C/c2ccc(N3CCOCC3)cc2)s1 [Example 23-89]
Second: COc1ccccc1-c1nc(C)c(C(=O)N/N=C/c2ccc3c(c2)OCCN3C)s1 [Example 23-98]
The minimal effective concentration of the first is 10-fold higher: 1 µM for the first, 0.1 µM for the second.

`COc1ccccc1-c1nc(C)c(C(=O)N/N=C/c2ccc3[nH]ccc3c2)s1` [Example 23-90] and `COc1ccccc1-c1nc(C)c(C(=O)N/N=C/c2ccc3cc[nH]c3c2)s1` [Example 23-91] are the same in minimal effective concentration: 0.1 µM for the first, 0.1 µM for the second.

Going from `COc1ccccc1-c1nc(C)c(C(=O)N/N=C/c2ccc3c(ccn3C)c2)s1` [Example 23-92] to `COc1ccccc1-c1nc(C)c(C(=O)N/N=C/c2ccc3ccn(C)c3c2)s1` [Example 23-93], the minimal effective concentration rises from 0.025 µM to 0.1 µM (4-fold).

Going from `COc1cc(Cl)ccc1-c1nc(C)c(C(=O)N/N=C/c2cccc3[nH]ccc23)s1` [Example 23-94] to `COc1cc(Cl)ccc1-c1nc(C)c(C(=O)N/N=C/c2cccc3c2ccn3C)s1` [Example 23-95], the minimal effective concentration falls from 1 µM to 0.1 µM (10-fold).

`COc1ccccc1-c1nc(C)c(C(=O)N/N=C/c2ccc3ncccc3c2)s1` [Example 23-97] and `COc1ccccc1-c1nc(C)c(C(=O)N/N=C/c2ccc3occc3c2)s1` [Example 23-159] are the same in minimal effective concentration: 0.1 µM for the first, 0.1 µM for the second.

First: CCc1nc(-c2ccc(Cl)cc2)sc1C(=O)N/N=C/c1ccc(OC)c(O)c1 [Example 23-100]
Second: CCCc1nc(-c2ccc(Cl)cc2)sc1C(=O)N/N=C/c1ccc(OC)c(O)c1 [Example 23-102]
The minimal effective concentration of the first is 10-fold lower: 1 µM for the first, 10 µM for the second.

Compared with `COc1ccc(/C=N/NC(=O)c2sc(-c3ccc(Cl)cc3)nc2C2CC2)cc1O` [Example 23-101], `Cc1nc(-c2ccc(Cl)cc2)sc1C(=O)N/N=C/c1ccc(OC(F)F)c(O)c1` [Example 23-115] is 10-fold lower in minimal effective concentration: 10 µM for the first, 1 µM for the second.

First: COc1ccc(-c2nc(C)c(C(=O)N/N=C/c3ccc(OC)c(O)c3)s2)cc1 [Example 23-103]
Second: COc1ccc(/C=N/NC(=O)c2sc(-c3cccc(OC)c3C)nc2C)cc1O [Example 23-130]
The minimal effective concentration of the first is 10-fold higher: 10 µM for the first, 1 µM for the second.

First: COc1ccc(-c2nc(C)c(C(=O)N/N=C/c3cc(C)c(O)c(C)c3)s2)cc1 [Example 23-104]
Second: COc1ccccc1-c1nc(C)c(C(=O)N/N=C/c2cc(C)c(O)c(C)c2)s1 [Example 23-120]
The minimal effective concentration of the first is 10-fold higher: 1 µM for the first, 0.1 µM for the second.

Compared with `CCCCCCOc1ccc(/C=N/NC(=O)c2sc(-c3ccc(Cl)cc3)nc2C)cc1O` [Example 23-105], `COc1ccc(/C=N/NC(=O)c2sc(-c3ccc(Cl)cc3)nc2C)cc1B(O)O` [Example 23-140] is 10-fold lower in minimal effective concentration: 10 µM for the first, 1 µM for the second.

First: CCc1nc(-c2ccc(Cl)cc2)sc1C(=O)N/N=C/c1cc(C)c(O)c(C)c1 [Example 23-106]
Second: CCCc1nc(-c2ccc(Cl)cc2)sc1C(=O)N/N=C/c1cc(C)c(O)c(C)c1 [Example 23-107]
The minimal effective concentration of the first is 10-fold lower: 1 µM for the first, 10 µM for the second.

`CCc1nc(-c2ccc(Cl)cc2)sc1C(=O)N/N=C/c1ccc(O)c(C)c1` [Example 23-108] and `Cc1nc(-c2ccc(Cl)cc2)sc1C(=O)N/N=C/c1ccc2c(c1)CCO2` [Example 23-152] are the same in minimal effective concentration: 10 µM for the first, 10 µM for the second.

Compared with `Cc1nc(-c2ccc(Cl)cc2)sc1C(=O)N/N=C/c1ccc(O)c2ccccc12` [Example 23-110], `COc1ccc(-c2nc(C)c(C(=O)N/N=C/c3ccc(O)c4ccccc34)s2)cc1` [Example 23-113] is 10-fold higher in minimal effective concentration: 1 µM for the first, 10 µM for the second.

`Cc1nc(-c2ccccc2Cl)sc1C(=O)N/N=C/c1ccc(OC(F)F)c(O)c1` [Example 23-116] and `Cc1nc(-c2ccccc2C(F)(F)F)sc1C(=O)N/N=C/c1ccc(OC(F)F)c(O)c1` [Example 23-118] are the same in minimal effective concentration: 1 µM for the first, 1 µM for the second.

`Cc1cccc(-c2nc(C)c(C(=O)N/N=C/c3ccc(OC(F)F)c(O)c3)s2)c1C` [Example 23-117] and `COc1ccc(/C=N/NC(=O)c2sc(-c3cccc(Cl)c3C)nc2C)cc1O` [Example 23-125] are the same in minimal effective concentration: 1 µM for the first, 1 µM for the second.

Going from `Cc1cccnc1-c1nc(C)c(C(=O)N/N=C/c2cc(C)c(O)c(C)c2)s1` [Example 23-119] to `Cc1ccncc1-c1nc(C)c(C(=O)N/N=C/c2cc(C)c(O)c(C)c2)s1` [Example 23-136], the minimal effective concentration falls from 10 µM to 1 µM (10-fold).

Going from `Cc1ccc(-c2nc(C)c(C(=O)N/N=C/c3cc(C)c(O)c(C)c3)s2)c(C)c1` [Example 23-122] to `Cc1ccc(C)c(-c2nc(C)c(C(=O)N/N=C/c3cc(C)c(O)c(C)c3)s2)c1` [Example 23-127], the minimal effective concentration rises from 0.1 µM to 1 µM (10-fold).

Compared with `Cc1cc(Cl)ccc1-c1nc(C)c(C(=O)N/N=C/c2cc(C)c(O)c(C)c2)s1` [Example 23-123], `COc1cccc(-c2nc(C)c(C(=O)N/N=C/c3cc(C)c(O)c(C)c3)s2)c1C` [Example 23-131] is 10-fold higher in minimal effective concentration: 0.1 µM for the first, 1 µM for the second.

First: Cc1ccccc1-c1ncc(C(=O)N/N=C/c2cc(C)c(O)c(C)c2)s1 [Example 23-124]
Second: Cc1cc(/C=N/NC(=O)c2cnc(-c3ccccc3Cl)s2)cc(C)c1O [Example 23-143]
The minimal effective concentration of the first is 10-fold lower: 0.1 µM for the first, 1 µM for the second.

`COc1ccc(/C=N/NC(=O)c2sc(-c3cc(C)ccc3C)nc2C)cc1O` [Example 23-126] and `COc1ccc(/C=N/NC(=O)c2sc(-c3cnccc3C)nc2C)cc1O` [Example 23-135] are the same in minimal effective concentration: 1 µM for the first, 1 µM for the second.

First: COc1ccc(/C=N/NC(=O)c2sc(C3CCCCC3)nc2C)cc1O [Example 23-128]
Second: Cc1cc(/C=N/NC(=O)c2sc(C3CCCCC3)nc2C)cc(C)c1O [Example 23-129]
The minimal effective concentration of the first is 10-fold lower: 1 µM for the first, 10 µM for the second.

Going from `COc1ccc(/C=N/NC(=O)c2sc(C)nc2C)cc1O` [Example 23-132] to `COc1ccc(/C=N/NC(=O)c2sc(-c3sc(C)nc3C)nc2C)cc1O` [Example 23-134], the minimal effective concentration falls from 10 µM to 1 µM (10-fold).

Compared with `Cc1nc(C)c(C(=O)N/N=C/c2cc(C)c(O)c(C)c2)s1` [Example 23-133], `Cc1cccc(-c2c[nH]c(C(=O)N/N=C/c3cc(C)c(O)c(C)c3)c2)c1C` [Example 24-1, 4-(2,3-Dimethylphenyl)-1H-pyrrole-2-carboxylic acid [1-(4-hydroxy-3,5-dimethylphenyl)methylidene]hydrazide] is 10-fold lower in minimal effective concentration: 10 µM for the first, 1 µM for the second.

`COc1ccc(/C=N/NC(=O)c2sc(-c3scnc3C)nc2C)cc1O` [Example 23-137] and `COc1ccc(/C=N/NC(=O)c2sc(-c3ncccc3Cl)nc2C)cc1O` [Example 23-139] are the same in minimal effective concentration: 1 µM for the first, 1 µM for the second.

`COc1ccccc1-c1nc(C)c(C(=O)N/N=C/c2ccc3c(c2)CCO3)s1` [Example 23-153] and `COc1ccc(/C=N/NC(=O)c2sc(-c3ccccc3OC)nc2C)cc1B(O)O` [Example 23-160] are the same in minimal effective concentration: 0.1 µM for the first, 0.1 µM for the second.

First: COc1ccc(/C=N/NC(=O)c2sc(-c3cccc4c3OCCO4)nc2C)cc1O [Example 23-154]
Second: COc1ccc(/C=N/NC(=O)c2cc(-c3ccc(Cl)cc3)oc2C)cc1O [Example 23-166, 5-(4-Chlorophenyl)-2-methylfuran-3-carboxylic acid [1-(3-hydroxy-4-methoxyphenyl)methylidene]hydrazide]
The minimal effective concentration of the first is 10-fold higher: 10 µM for the first, 1 µM for the second.

`Cc1nc(-c2ccc(Cl)cc2)sc1C(=O)N/N=C/c1ccc2occc2c1` [Example 23-161] and `COc1ccc(/C=N/NC(=O)c2cc(-c3ccc(Cl)cc3)c[nH]2)cc1O` [Example 24-2, 4-(4-Chlorophenyl)-1H-pyrrole-2-carboxylic acid [1-(3-hydroxy-4-methoxyphenyl)methylidene]hydrazide] are the same in minimal effective concentration: 1 µM for the first, 1 µM for the second.

`COc1ccc(-c2nc(-c3ccccc3C)sc2C(=O)N/N=C/c2cc(C)c(O)c(C)c2)cc1` [Example 23-162] and `Cc1cc(/C=N/NC(=O)c2cc(-c3ccc(Cl)cc3)oc2C)cc(C)c1O` [Example 23-167, 5-(4-Chlorophenyl)-2-methylfuran-3-carboxylic acid [1-(4-hydroxy-3,5-dimethylphenyl)methylidene]hydrazide] are the same in minimal effective concentration: 1 µM for the first, 1 µM for the second.

`COc1ccc2c(c1)CC/C2=N\NC(=O)c1sc(-c2ccc(Cl)cc2OC)nc1C` [Example 23-165] and `COc1ccc(/C=N/NC(=O)c2cc(-c3ccc(Cl)cc3OC)cn2C)cc1` [Example 23-168, 4-(4-Chloro-2-methoxyphenyl)-1-methyl-1H-pyrrole-2-carboxylic acid (4-methoxybenzylidene)hydrazide] are the same in minimal effective concentration: 1 µM for the first, 1 µM for the second.

`COc1cc(Cl)ccc1-c1cc(C(=O)N/N=C/c2cc(C)c(O)c(C)c2)n(C)c1` [Example 23-169, 4-(4-Chloro-2-methoxyphenyl)-1-methyl-1H-pyrrole-2-carboxylic acid (4-hydroxy-3,5-dimethylbenzylidene)hydrazide] and `COc1ccc(/C=N/NC(=O)c2cc(-c3ccc(Cl)cc3OC)cn2C)cc1O` [Example 23-170, 4-(4-Chloro-2-methoxyphenyl)-1-methyl-1H-pyrrole-2-carboxylic acid (3-hydroxy-4-methoxybenzylidene)hydrazide] are the same in minimal effective concentration: 10 µM for the first, 10 µM for the second.

In the case of `Cc1cc(/C=N/NC(=O)c2cc(-c3ccc(Cl)cc3)c[nH]2)cc(C)c1O` [Example 24-3, 4-(4-Chlorophenyl)-1H-pyrrole-2-carboxylic acid[1-(4-hydroxy-3,5-dimethylphenyl)methylidene]hydrazide], the minimal effective concentration is reported as 0.1 µM.
